# Where a name gives a salt, the structure may show the parent alone.
# Tests used:
# human GLP-1R [1] = biological target: human GLP-1R (Homo sapiens, UniProt P43220, L260F); test: CHO GLP-1R Clone C6 cAMP HTRF agonist assay (Assay 2, low receptor density); format: cell-based; settings: for EC50: geometric mean; for Emax: CHO GLP-1R clone C6, arithmetic mean, relative to saturating GLP-1 (1 μM)
# Excerpt: In Table 5 and Table 6, assay data are presented to two (2) significant figures as the geometric mean (EC50s) and arithmetic mean (Emax) based on the number of replicates listed (Number). A blank cell means there was no data for that Example or the Emax was not calculated.
# human GLP-1R [2] = biological target: human GLP-1R (Homo sapiens, UniProt P43220, G168S); test: CHO GLP-1R Clone H6 cAMP HTRF agonist assay (Assay 1, high receptor density); format: cell-based; settings: for EC50: geometric mean; for Emax: CHO GLP-1R clone H6, arithmetic mean, relative to saturating GLP-1 (1 μM), read-out: Assay 1 Emax (%)
# human GLP-1R (Homo sapiens, UniProt P43220, G168S), sequence (P43220 24-463 G168S): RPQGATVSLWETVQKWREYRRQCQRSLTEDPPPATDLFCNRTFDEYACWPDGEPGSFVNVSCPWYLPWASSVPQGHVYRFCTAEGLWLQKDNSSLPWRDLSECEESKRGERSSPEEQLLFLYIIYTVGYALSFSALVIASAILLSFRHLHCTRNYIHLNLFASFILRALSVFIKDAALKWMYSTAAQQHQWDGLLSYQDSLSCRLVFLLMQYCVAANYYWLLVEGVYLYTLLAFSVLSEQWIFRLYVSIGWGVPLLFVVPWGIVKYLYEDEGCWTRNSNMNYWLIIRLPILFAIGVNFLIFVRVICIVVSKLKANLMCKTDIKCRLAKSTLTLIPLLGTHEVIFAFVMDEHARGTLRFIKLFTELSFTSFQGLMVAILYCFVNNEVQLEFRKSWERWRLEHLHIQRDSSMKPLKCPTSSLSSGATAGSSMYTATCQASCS
# Summary of the method: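 Averaging differs by parameter: a geometric mean for EC50 and an arithmetic mean for Emax, each over the stated replicate number.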
# human GLP-1R (Homo sapiens, UniProt P43220, L260F), sequence (P43220 24-463 L260F): as the sequence (P43220 24-463 G168S) above, with S145G, L237F counted along it
"EC50 (human GLP-1R [1]; CHO GLP-1R clone C6, cAMP HTRF) [nM]",Emax (human GLP-1R [1]) [%],"EC50 (human GLP-1R [2]; CHO GLP-1R clone H6, cAMP HTRF) [nM]",Emax (human GLP-1R [2]) [%],"EC50 (human GLP-1R [1]; CHO GLP-1R clone, low receptor density, cAMP HTRF) [nM]","EC50 (human GLP-1R [2]; CHO GLP-1R clone, cAMP HTRF) [nM]",SMILES
20,87,2,84,,,"Cc1nnc(CCn2c(CN3CCC(c4cccc(OCc5ccc(Cl)cc5F)n4)CC3)nc3ccc(C(=O)O)cc32)o1 [Compound 253B, 2-[(4-{6-[(4-chloro-2-fluorobenzyl)oxy]pyridin-2-yl}piperidin-1-yl)methyl]-1-[2-(5-methyl-1,3,4-oxadiazol-2-yl)ethyl]-1H-benzimidazole-6-carboxylic acid]"
230,77,8.1,64,,,"O=C(O)c1ccc2nc(CN3CCC(c4cccc(OCc5ccc(Cl)cc5F)n4)CC3)n(Cc3ccc(Cl)cn3)c2c1 [Compound 277B, 2-[(4-{6-[(4-chloro-2-fluorobenzyl)oxy]pyridin-2-yl}piperidin-1-yl)methyl]-1-[(5-chloropyridin-2-yl)methyl]-1H-benzimidazole-6-carboxylic acid]"
94,92,9.4,69,,,"CCN1CCC(Cn2c(CN3CCC(c4cccc(OCc5ccc(Cl)cc5F)n4)CC3)nc3ccc(C(=O)O)cc32)C1 (centres unmarked) [Compound 278B, 2-[(4-{6-[(4-chloro-2-fluorobenzyl)oxy]pyridin-2-yl}piperidin-1-yl)methyl]-1-[(1-ethylpyrrolidin-3-yl)methyl]-1H-benzimidazole-6-carboxylic acid]"
88,82,8.6,78,,,"CCn1c(CN2CCC(c3cccc(OCc4ccc(Cl)cc4F)n3)CC2)nc2ccc(C(=O)O)cc21 [Compound 257B, 2-[(4-{6-[(4-chloro-2-fluorobenzyl)oxy]pyridin-2-yl}piperidin-1-yl)methyl]-1-ethyl-1H-benzimidazole-6-carboxylic acid]"
350,70,28,82,,,"COCCn1c(CN2CC[C@H](c3cccc(OCc4ccc(Cl)cc4F)n3)C[C@H]2C)nc2ccc(C(=O)O)cc21 (relative stereo) [Compound 357B, trans 2-{[4-{6-[(4-Chloro-2-fluorobenzyl)oxy]pyridin-2-yl}-2-methylpiperidin-1-yl]methyl}-1-(2-methoxyethyl)-1H-benzimidazole-6-carboxylic acid]"
1300,96,120,93,,,"O=C(O)c1ccc2nc(CN3CCC(c4cccc(OCc5ccc(Cl)cc5F)n4)CC3)n(Cc3nnc[nH]3)c2c1 [Compound 300B, 2-[(4-{6-[(4-chloro-2-fluorobenzyl)oxy]pyridin-2-yl}piperidin-1-yl)methyl]-1-(4H-1,2,4-triazol-3-ylmethyl)-1H-benzimidazole-6-carboxylic acid]"
220,110,8.5,88,,,"O=C(O)c1ccc2nc(CN3CCC(c4cccc(OCc5ccc(F)cc5F)n4)CC3)n(Cc3cnco3)c2c1 [Compound 157B, 2-[(4-{6-[(2,4-difluorobenzyl)oxy]pyridin-2-yl}piperidin-1-yl)methyl]-1-(1,3-oxazol-5-ylmethyl)-1H-benzimidazole-6-carboxylic acid]"
2000,82,63,78,,,"COC1CCN(CCn2c(CN3CCC(c4cccc(OCc5ccc(Cl)cc5F)n4)CC3)nc3ccc(C(=O)O)cc32)CC1 [Compound 331B, 2-[(4-{6-[(4-chloro-2-fluorobenzyl)oxy]pyridin-2-yl}piperidin-1-yl)methyl]-1-[2-(4-methoxypiperidin-1-yl)ethyl]-1H-benzimidazole-6-carboxylic acid]"

# More lines, now with the values behind:
SMILES,"EC50 (human GLP-1R [1]; CHO GLP-1R clone C6, cAMP HTRF) [nM]",Emax (human GLP-1R [1]) [%],"EC50 (human GLP-1R [2]; CHO GLP-1R clone H6, cAMP HTRF) [nM]",Emax (human GLP-1R [2]) [%],"EC50 (human GLP-1R [1]; CHO GLP-1R clone, low receptor density, cAMP HTRF) [nM]","EC50 (human GLP-1R [2]; CHO GLP-1R clone, cAMP HTRF) [nM]"
"Cn1cncc1Cn1c(CN2CCN(c3cccc(OCc4ccc(C#N)cc4F)n3)CC2)nc2ccc(C(=O)O)cc21 [Compound 154B, 2-[(4-{6-[(4-cyano-2-fluorobenzyl)oxy]pyridin-2-yl}piperazin-1-yl)methyl]-1-[(1-methyl-1H-imidazol-5-yl)methyl]-1H-benzimidazole-6-carboxylic acid]",78,88,6,80,,
"N#Cc1ccc(COc2cccc(C3CCN(Cc4nc5ccc(C(=O)O)nc5n4Cc4cnco4)CC3)n2)c(F)c1 [Compound 248B, 2-[(4-{6-[(4-cyano-2-fluorobenzyl)oxy]pyridin-2-yl}piperidin-1-yl)methyl]-3-(1,3-oxazol-5-ylmethyl)-3H-imidazo[4,5-b]pyridine-5-carboxylic acid]",32,79,2,82,,
"N#Cc1ccc(COc2cccc(N3CCN(Cc4nc5ccc(C(=O)O)nc5n4C[C@@H]4CCO4)CC3)n2)c(F)c1 [Compound 123B, 2-[(4-{6-[(4-cyano-2-fluorobenzyl)oxy]pyridin-2-yl}piperazin-1-yl)methyl]-3-[(2S)-oxetan-2-ylmethyl]-3H-imidazo[4,5-b]pyridine-5-carboxylic acid]",45,95,2.4,87,,
"COCCn1c(CN2CCN(c3cccc(OCc4ccc(Cl)cc4F)n3)[C@@H](C)C2)nc2ccc(C(=O)O)cc21 [Compound 183B, 2-{[(3S)-4-{6-[(4-chloro-2-fluorobenzyl)oxy]pyridin-2-yl}-3-methylpiperazin-1-yl]methyl}-1-(2-methoxyethyl)-1H-benzimidazole-6-carboxylic acid]",3500,90,180,78,,
"N#Cc1ccc(COc2cccc(C3CCN(Cc4nc5ccc(C(=O)O)nc5n4C[C@@H]4CCO4)CC3)n2)c(F)c1 [Compound 114B, 2-[(4-{6-[(4-cyano-2-fluorobenzyl)oxy]pyridin-2-yl}piperidin-1-yl)methyl]-3-[(2S)-oxetan-2-ylmethyl]-3H-imidazo[4,5-b]pyridine-5-carboxylic acid]",120,85,7.1,81,,
"O=C(O)c1ccc2nc(CN3CCN(c4cccc(OCc5ccc(Cl)cc5F)n4)CC3)n(Cc3ncco3)c2c1 [Compound 151B, 2-[(4-{6-[(4-chloro-2-fluorobenzyl)oxy]pyridin-2-yl}piperazin-1-yl)methyl]-1-(1,3-oxazol-2-ylmethyl)-1H-benzimidazole-6-carboxylic acid]",280,,22,87,,
"O=C(O)c1ccc2nc(CN3CCC(c4cccc(OCc5ccc(Cl)cc5F)n4)CC3)n(C[C@@H]3CCO3)c2n1 [Compound 122B, 2-[(4-{6-[(4-chloro-2-fluorobenzyl)oxy]pyridin-2-yl}piperidin-1-yl)methyl]-3-[(2S)-oxetan-2-ylmethyl]-3H-imidazo[4,5-b]pyridine-5-carboxylic acid]",14,82,1.5,86,,
"COCCn1c(CN2CCN(c3cccc(OCc4ccc(Cl)cc4F)n3)C[C@H]2C)nc2ccc(C(=O)O)cc21 [Compound 356B, 2-{[(2R)-4-{6-[(4-chloro-2-fluorobenzyl)oxy]pyridin-2-yl}-2-methylpiperazin-1-yl]methyl}-1-(2-methoxyethyl)-1H-benzimidazole-6-carboxylic acid]",1100,75,100,,,
"COCCn1c(C2CC23CCC(c2cccc4c2OC(C)(c2ccc(Cl)cc2F)O4)CC3)nc2ccc(C(=O)O)cc21 (centres unmarked) [Compound 29B, 2-{6-[2-(4-chloro-2-fluorophenyl)-2-methyl-1,3-benzodioxol-4-yl]-6-azaspiro[2.5]oct-1-yl}-1-(2-methoxyethyl)-1H-benzimidazole-6-carboxylic acid, DIAST-Z2, trifluoroacetate salt]",,,,,> 20000,> 20000
"C[C@H]1CN(c2cccc(OCc3ccc(C#N)cc3F)n2)CCN1Cc1nc2ccc(C(=O)O)cc2n1Cc1cncn1C [Compound 249B, 2-{[(2S)-4-{6-[(4-cyano-2-fluorobenzyl)oxy]pyridin-2-yl}-2-methylpiperazin-1-yl]methyl}-1-[(1-methyl-1H-imidazol-5-yl)methyl]-1H-benzimidazole-6-carboxylic acid]",35,78,1.6,84,,
"COCCn1c(CN2CCC(c3cccc(OCc4ccc(Cl)cc4F)n3)CC2)nc2ncc(C(=O)O)nc21 [Compound 207B, 2-[(4-{6-[(4-chloro-2-fluorobenzyl)oxy]pyridin-2-yl}piperidin-1-yl)methyl]-1-(2-methoxyethyl)-1H-imidazo[4,5-b]pyrazine-6-carboxylic acid]",130,94,5.7,78,,
"COCCn1c(CN2CCN(c3cccc(OCc4ccc(Cl)cc4F)n3)C[C@@H]2CO)nc2ccc(C(=O)O)cc21 [Compound 354B, 2-{[(2R)-4-{6-[(4-chloro-2-fluorobenzyl)oxy]pyridin-2-yl}-2-(hydroxymethyl)piperazin-1-yl]methyl}-1-(2-methoxyethyl)-1H-benzimidazole-6-carboxylic acid]",1500,69,94,78,,
"Cn1c(CN2CCC(c3cccc(OCc4cccc(F)c4F)n3)CC2)nc2ccc(C(=O)O)cc21 [Compound 227B, 2-[(4-{6-[(2,3-difluorobenzyl)oxy]pyridin-2-yl}piperidin-1-yl)methyl]-1-methyl-1H-benzimidazole-6-carboxylic acid]",48,79,4,64,,
